Test results: US20230382863A1, “MEK INHIBITORS AND USES THEREOF” (Ikena Oncology, Inc., priority 2022, published 2023)

Columns and labels:
[1] = system: 5637 xenograft (CRAF amplification); experiment: In vivo efficacy, 5637 xenograft model; set-up: species or system mouse; conditions: 5637 model, 3 mg/kg QD, Day 21
Method: The antitumor activity of exemplary MEK inhibitor compounds is evaluated in vivo using human cell line derived xenografts (CDX) grown in immunodeficient mice. For these studies, AsPC1 (pancreatic cell line with KRAS G12D mutation), NCI-H2122 (lung cell line with KRAS G12C mutation), and 5637 (bladder cell line with CRAF amplification) models are used. In addition, HCT-116 (colorectal cell line with KRAS G13D mutation), SKM-1 (AML cell line with KRAS K117N mutation), and OCI-AML-3 (AML cell line with NRAS Q61L mutation) models are used. The tumor cell lines (AsPC-1, NCI-H2122, 5637, and HCT-116 cells) are maintained in vitro as monolayer culture in medium at 37° C. in an atmosphere of 5% CO2 in air. The tumor cell lines (SKM-1 and OCI-AML-3 cells) are maintained in vitro as a suspension in medium at 37° C. in an atmosphere of 5% CO2 in air. The tumor cells are routinely sub-cultured before confluence by trypsin-EDTA treatment, not to exceed 4-5 passages. The cells growing in an exponential growth phase are harvested for tumor inoculation. AsPC1, NCI-H2122, and OCI-AML-3 tumors are implanted into Balb/c nude mice. HCT-116 tumors are implanted into Nu/Nu mice. 5637 and SKM-1 tumors are implanted into NOG mice. […] Throughout the study, mouse body weight and tumor volume are recorded. The measurement of tumor size is conducted twice weekly with a caliper and recorded. […]

[2] = Cassette pharmacokinetics studies in mice; assay type: in vivo; conditions: male, Balb/c, plasma, Mouse
In short: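 Male Balb/c mice (3 per route) received cassette doses in 5% DMSO/95% PEG400 at 2 mg/kg IV (1 mg/kg where IV*) or 5 mg/kg PO. Plasma sampled to 24 h, acetonitrile-precipitated with internal standard, quantified by HPLC/MS/MS against 0.5-1,000 ng/mL standards.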

[3] = system: 240 cell lines with known alterations in the MAPK pathway; experiment: MEK inhibitor sensitivity in 240 cell lines (Cell Titer Glo, 5 days); assay type: cell-based; conditions: cell lines with KRAS, NRAS, BRAF Class I and III mutations, CRAF-alterations
Method: 240 cell lines representative of multiple cancer indications with known alterations in the MAPK pathway, including KRAS, NRAS, HRAS, NF1, EGFR, BRAF and CRAF mutations, were seeded overnight in […], then treated with a 9-point dose response of exemplary MEK inhibitors (starting dose of 100 nM and 3-fold dilution) for 5 days. Cell viability was determined using a Cell Titer Glo (CTG) assay. Percent inhibition was calculated for all compounds utilizing staurosporine (1000 nM) treatment as a measure of maximal inhibition. IC50 and area under the curve (AUC) values were determined by fitting a variable slope, four parameters curve to the compound concentration to percent inhibition relationship.

BRAF in complex with MEK = experiment: BRAF-MEK stabilization in cells (MEK immunoprecipitation, Western); assay type: cell-based; conditions: 3 nM, 4 hours
Source text: (§1) The stabilization of ARAF, BRAF and CRAF in complex with MEK in MEK immunoprecipitates isolated from cellular lysates. For these studies, HCT-116 (colorectal cell line with KRAS G13D mutation), SKMEL-2 (melanoma cell line with NRAS Q61K mutation), HT-29 (colorectal cell line with BRAF Class I mutation), NCI-H1755 (lung cancer cell line with BRAF Class II mutation), and NCI-H1666 (lung cancer cell line with BRAF Class III mutation) models are used. The tumor cell lines are maintained in vitro as monolayer culture in medium at 37° C. in an atmosphere of 5% CO2 in air. Cell lines are treated with exemplary MEK inhibitors at a concentration of 3 nM for 4 hours. Cells are lysed and MEK is immunoprecipitated from the lysates overnight. Denatured immunoprecipitates are run on SDS-PAGE, transferred to nitrocellulose membranes and associated ARAF, BRAF, or CRAF are detected by Western analysis. Stabilization was defined as >1.5-fold induction of RAF-MEK interaction over vehicle control.

Pharmacokinetics in rat = assay type: in vivo; conditions: plasma, IV, 1 mg/kg
pERK HCT-116 (G13D) = pERK HCT-116 (G13D) ICW (4 hour); assay type: cell-based; conditions: Homo sapiens, read-out: pERK HCT-116 (G13D) ICW (4 hour): Average IC50 (nM)
[4] = system: HCT-116 xenograft (KRAS G13D); experiment: In vivo efficacy, HCT-116 xenograft model; set-up: species or system mouse; conditions: HCT-116 model, Day 20
Method: The antitumor activity of exemplary MEK inhibitor compounds is evaluated in vivo using human cell line derived xenografts (CDX) grown in immunodeficient mice. For these studies, AsPC1 (pancreatic cell line with KRAS G12D mutation), NCI-H2122 (lung cell line with KRAS G12C mutation), and 5637 (bladder cell line with CRAF amplification) models are used. In addition, HCT-116 (colorectal cell line with KRAS G13D mutation), SKM-1 (AML cell line with KRAS K117N mutation), and OCI-AML-3 (AML cell line with NRAS Q61L mutation) models are used. The tumor cell lines (AsPC-1, NCI-H2122, 5637, and HCT-116 cells) are maintained in vitro as monolayer culture in medium at 37° C. in an atmosphere of 5% CO2 in air. The tumor cell lines (SKM-1 and OCI-AML-3 cells) are maintained in vitro as a suspension in medium at 37° C. in an atmosphere of 5% CO2 in air. The tumor cells are routinely sub-cultured before confluence by trypsin-EDTA treatment, not to exceed 4-5 passages. The cells growing in an exponential growth phase are harvested for tumor inoculation. AsPC1, NCI-H2122, and OCI-AML-3 tumors are implanted into Balb/c nude mice. HCT-116 tumors are implanted into Nu/Nu mice. 5637 and SKM-1 tumors are implanted into NOG mice. Each mouse is inoculated subcutaneously on the right flank with tumor cells in a 1:1 mixture with matrigel. Tumors are allowed to grow to approximately 150-200 mm^3. At this time, mice are assigned to groups such that the mean tumor volume is the same for each treatment group. The MEK inhibitor compound treatments are administrated to the tumor-bearing mice via oral gavage. Throughout the study, mouse body weight and tumor volume are recorded. The measurement of tumor size is conducted twice weekly with a caliper and recorded. The tumor volume (mm^3) is estimated using the formula: TV=a×b^2/2, where “a” and “b” are long and short diameters of a tumor, respectively.

ARAF in complex with MEK = experiment: ARAF-MEK stabilization in cells (MEK immunoprecipitation, Western); assay type: cell-based; conditions: HCT-116 and NCI-H1755 cells, 3 nM, 4 hours; stabilization = >1.5-fold over vehicle
Source text: as §1

AUC(0-inf) ([2]; IV, 2 mg/kg): 1950 ng·h/mL | AUC(0-t) ([2]; IV, 2 mg/kg): 1940 ng·h/mL | clearance ([2]; IV, 2 mg/kg): 17.2 mL/min/kg | half-life ([2]; IV, 2 mg/kg): 1.04 h | Vd ([2]; IV, 2 mg/kg, read-out: Vdss): 1.3 L/kg | AUC(0-inf) ([2]; PO, 5 mg/kg): 4040 ng·h/mL | AUC(0-t) ([2]; PO, 5 mg/kg): 3960 ng·h/mL | Cmax ([2]; PO, 5 mg/kg): 1660 ng/mL | Tmax ([2]; PO, 5 mg/kg): 0.5 h | half-life ([2]; PO, 5 mg/kg): 7.99 h | AUC(0-inf) (Pharmacokinetics in rat): 1080 ng·h/mL | AUC(0-t) (Pharmacokinetics in rat): 1070 ng·h/mL | clearance (Pharmacokinetics in rat): 16.6 mL/min/kg | half-life (Pharmacokinetics in rat): 4.22 h | Vd (Pharmacokinetics in rat; read-out: Vdss): 2.2 L/kg | IC50 (pERK HCT-116 (G13D)): < 100 nM
Compound: CNS(=O)(=O)Nc1cccc(Oc2c(C(=O)NC3CC3)c(Nc3ccc(I)cc3F)n(C)c(=O)c2C)c1Cl [Compound I-2, 4-(2-chloro-3-((N-methylsulfamoyl)amino)phenoxy)-N-cyclopropyl-2-((2-fluoro-4-iodophenyl)amino)-1,5-dimethyl-6-oxo-1,6-dihydropyridine-3-carboxamide]
average body weight loss [1]: 6.8% | percent TGI [1]: 111% | sensitivity compared to RAS/RAF wild-type cell lines [3]: increased sensitivity | Wild-type BRAF-MEK association (BRAF in complex with MEK; HCT-116 and SKMEL-2 cells): augmented | mutant BRAF-MEK interaction (BRAF in complex with MEK; HT-29 (BRAF Class I), NCI-H1755 (BRAF Class II), NCI-H1666 (BRAF Class III)): enhanced | average body weight gain ([4]; 2 mg/kg QD): 4% | percent TGI ([4]; 2 mg/kg QD): 102.9% | average body weight gain ([4]; 3 mg/kg QOD): 5.5% | percent TGI ([4]; 3 mg/kg QOD): 98.1% | average body weight gain ([4]; 6 mg/kg QOD): 12.1% | percent TGI ([4]; 6 mg/kg QOD): 98% | association of ARAF with MEK (ARAF in complex with MEK): enhanced
